Measured values from publication PMC9329436, “Optimization of the 4-anilinoquin(az)oline scaffold as epidermal growth factor receptor (EGFR) inhibitors for chordoma utilizing a toxicology profiling assay platform” (Scientific Reports, 2022).
Like-named read-outs stand apart in the source and are kept apart here.

Experiments:
Format in all cases: biochemical
[1] = molecular target: 320 wild-type protein kinases (Homo sapiens, UniProt P49760); conditions: singlicate
Source text: (§1) Table S4. Profiling of two compounds at two concentrations against 320 wild-type protein kinases; singlicate measurement; Residual activities (% of control).

[2] = molecular target: T1, 320 wild-type protein kinases (Homo sapiens, UniProt Q14164); conditions: IKK-epsilon, singlicate
T1 sequence (Q14164 1-716): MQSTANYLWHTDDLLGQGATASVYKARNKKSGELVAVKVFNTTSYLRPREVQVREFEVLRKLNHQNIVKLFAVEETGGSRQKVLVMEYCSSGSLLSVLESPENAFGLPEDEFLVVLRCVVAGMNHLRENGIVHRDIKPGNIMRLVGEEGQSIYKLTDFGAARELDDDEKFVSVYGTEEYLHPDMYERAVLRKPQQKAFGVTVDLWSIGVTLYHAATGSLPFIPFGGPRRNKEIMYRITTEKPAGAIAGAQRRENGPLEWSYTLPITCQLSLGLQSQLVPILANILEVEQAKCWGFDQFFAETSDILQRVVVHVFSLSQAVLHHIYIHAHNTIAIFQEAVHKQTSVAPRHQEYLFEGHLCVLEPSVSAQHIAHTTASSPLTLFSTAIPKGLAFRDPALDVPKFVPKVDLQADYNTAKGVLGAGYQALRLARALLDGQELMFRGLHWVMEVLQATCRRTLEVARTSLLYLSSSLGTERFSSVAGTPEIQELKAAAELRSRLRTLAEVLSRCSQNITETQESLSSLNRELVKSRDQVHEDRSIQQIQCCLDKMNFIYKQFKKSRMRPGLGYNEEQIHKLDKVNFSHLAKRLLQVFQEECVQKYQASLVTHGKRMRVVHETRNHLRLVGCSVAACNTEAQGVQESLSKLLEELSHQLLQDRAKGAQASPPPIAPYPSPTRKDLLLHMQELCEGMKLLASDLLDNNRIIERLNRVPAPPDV
Source text: as §1

[3] = molecular target: 320 wild-type protein kinases (Homo sapiens, UniProt P49761); conditions: singlicate
Chain of 320 wild-type protein kinases (Homo sapiens, UniProt P49761) (P49761 whole entry): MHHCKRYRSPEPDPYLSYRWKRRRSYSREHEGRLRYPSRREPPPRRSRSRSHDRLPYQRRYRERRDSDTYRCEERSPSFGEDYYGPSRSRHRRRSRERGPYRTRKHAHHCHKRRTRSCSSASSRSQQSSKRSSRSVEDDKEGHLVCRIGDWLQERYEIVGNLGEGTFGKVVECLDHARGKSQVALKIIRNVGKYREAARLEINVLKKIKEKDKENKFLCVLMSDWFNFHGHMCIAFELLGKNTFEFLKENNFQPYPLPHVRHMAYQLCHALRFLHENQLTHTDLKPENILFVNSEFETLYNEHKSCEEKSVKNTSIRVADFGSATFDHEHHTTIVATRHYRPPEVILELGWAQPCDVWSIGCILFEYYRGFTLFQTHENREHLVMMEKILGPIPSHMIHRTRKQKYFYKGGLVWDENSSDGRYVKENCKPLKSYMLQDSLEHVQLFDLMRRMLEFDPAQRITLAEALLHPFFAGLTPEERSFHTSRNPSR
Source text: as §1

[4] = molecular target: T2, 320 wild-type protein kinases (Homo sapiens, UniProt P52333); conditions: singlicate
T2 sequence (P52333 1-1124): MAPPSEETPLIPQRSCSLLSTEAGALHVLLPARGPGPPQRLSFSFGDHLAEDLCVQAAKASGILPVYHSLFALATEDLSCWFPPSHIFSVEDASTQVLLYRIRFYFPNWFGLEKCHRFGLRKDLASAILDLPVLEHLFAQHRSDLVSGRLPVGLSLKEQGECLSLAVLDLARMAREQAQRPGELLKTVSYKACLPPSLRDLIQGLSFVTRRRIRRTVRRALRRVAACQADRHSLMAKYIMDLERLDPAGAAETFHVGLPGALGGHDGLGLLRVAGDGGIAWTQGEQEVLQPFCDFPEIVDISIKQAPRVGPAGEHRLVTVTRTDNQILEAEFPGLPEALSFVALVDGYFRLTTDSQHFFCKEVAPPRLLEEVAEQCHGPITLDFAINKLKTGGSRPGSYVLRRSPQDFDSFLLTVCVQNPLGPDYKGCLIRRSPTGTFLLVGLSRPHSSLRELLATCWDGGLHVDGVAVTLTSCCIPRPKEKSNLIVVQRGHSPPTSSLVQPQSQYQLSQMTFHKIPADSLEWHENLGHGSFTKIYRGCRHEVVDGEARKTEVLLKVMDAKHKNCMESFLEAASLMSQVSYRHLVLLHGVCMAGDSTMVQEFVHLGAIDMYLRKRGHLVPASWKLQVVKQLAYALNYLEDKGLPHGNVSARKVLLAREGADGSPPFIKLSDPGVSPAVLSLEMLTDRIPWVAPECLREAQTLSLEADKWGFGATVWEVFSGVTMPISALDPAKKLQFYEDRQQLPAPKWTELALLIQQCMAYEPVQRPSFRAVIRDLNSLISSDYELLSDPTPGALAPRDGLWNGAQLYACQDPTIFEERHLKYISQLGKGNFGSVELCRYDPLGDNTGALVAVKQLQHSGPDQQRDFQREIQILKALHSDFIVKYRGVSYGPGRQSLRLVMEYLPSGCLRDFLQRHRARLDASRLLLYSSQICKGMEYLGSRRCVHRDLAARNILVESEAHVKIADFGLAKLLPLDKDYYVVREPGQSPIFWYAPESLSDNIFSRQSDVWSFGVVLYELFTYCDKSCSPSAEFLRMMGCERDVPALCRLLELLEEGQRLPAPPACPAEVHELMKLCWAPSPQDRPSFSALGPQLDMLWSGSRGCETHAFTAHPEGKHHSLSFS
Source text: as §1

[5] = molecular target: 320 wild-type protein kinases (Homo sapiens, UniProt P32298); conditions: singlicate
Chain of 320 wild-type protein kinases (Homo sapiens, UniProt P32298) (P32298 whole entry): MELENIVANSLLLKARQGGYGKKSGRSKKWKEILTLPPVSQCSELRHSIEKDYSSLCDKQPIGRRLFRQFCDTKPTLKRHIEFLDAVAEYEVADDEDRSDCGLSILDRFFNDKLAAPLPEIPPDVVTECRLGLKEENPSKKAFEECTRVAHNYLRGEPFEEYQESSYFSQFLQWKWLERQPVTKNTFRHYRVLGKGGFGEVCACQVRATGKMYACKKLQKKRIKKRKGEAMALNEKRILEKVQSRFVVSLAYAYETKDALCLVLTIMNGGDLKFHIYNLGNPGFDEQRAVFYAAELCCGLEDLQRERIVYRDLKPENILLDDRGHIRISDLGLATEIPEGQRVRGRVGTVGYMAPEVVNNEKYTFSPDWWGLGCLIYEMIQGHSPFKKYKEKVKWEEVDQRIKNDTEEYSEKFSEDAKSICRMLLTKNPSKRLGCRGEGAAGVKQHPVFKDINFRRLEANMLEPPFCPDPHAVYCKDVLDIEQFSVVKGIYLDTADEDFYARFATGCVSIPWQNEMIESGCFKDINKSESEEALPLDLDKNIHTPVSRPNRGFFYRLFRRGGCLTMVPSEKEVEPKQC
Source text: as §1

[6] = molecular target: T3, 320 wild-type protein kinases (Homo sapiens, UniProt P53778); conditions: p38-gamma, singlicate
T3 sequence (P53778 1-367): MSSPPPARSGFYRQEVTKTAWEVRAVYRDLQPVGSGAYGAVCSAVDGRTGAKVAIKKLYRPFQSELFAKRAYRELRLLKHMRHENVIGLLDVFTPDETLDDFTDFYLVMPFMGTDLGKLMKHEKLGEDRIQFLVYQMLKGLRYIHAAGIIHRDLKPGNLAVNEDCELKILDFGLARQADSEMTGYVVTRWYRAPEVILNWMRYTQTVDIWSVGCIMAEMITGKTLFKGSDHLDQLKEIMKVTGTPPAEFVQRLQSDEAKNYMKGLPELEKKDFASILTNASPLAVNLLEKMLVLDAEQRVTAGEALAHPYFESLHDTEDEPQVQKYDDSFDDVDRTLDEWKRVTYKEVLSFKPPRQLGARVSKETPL
Source text: as §1

Chain of 320 wild-type protein kinases (Homo sapiens, UniProt P49760) (P49760 whole entry): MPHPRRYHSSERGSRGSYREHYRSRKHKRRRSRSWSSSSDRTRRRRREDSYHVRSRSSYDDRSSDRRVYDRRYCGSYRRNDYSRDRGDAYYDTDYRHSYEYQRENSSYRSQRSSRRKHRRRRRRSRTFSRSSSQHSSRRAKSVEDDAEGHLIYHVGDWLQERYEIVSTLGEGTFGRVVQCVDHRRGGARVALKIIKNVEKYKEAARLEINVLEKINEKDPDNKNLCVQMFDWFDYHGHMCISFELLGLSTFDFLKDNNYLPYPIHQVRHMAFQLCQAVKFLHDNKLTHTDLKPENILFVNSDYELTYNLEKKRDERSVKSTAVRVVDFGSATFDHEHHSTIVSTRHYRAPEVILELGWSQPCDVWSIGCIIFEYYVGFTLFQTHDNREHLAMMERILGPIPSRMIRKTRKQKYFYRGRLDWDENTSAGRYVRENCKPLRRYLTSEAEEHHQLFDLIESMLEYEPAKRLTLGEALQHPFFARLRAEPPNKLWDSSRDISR

| Compound | Residual activity ([1]; CLK2, 1.0E-06 M) | Residual activity ([1]; CLK2, 1.0E-07 M) | Residual activity ([2]; 1.0E-06 M) | Residual activity ([2]; 1.0E-07 M) | Residual activity ([3]; CLK3, 1.0E-06 M) | Residual activity ([3]; CLK3, 1.0E-07 M) | Residual activity ([4]; JAK3, 1.0E-06 M) | Residual activity ([4]; JAK3, 1.0E-07 M) | Residual activity ([5]; GRK4, 1.0E-06 M) | Residual activity ([5]; GRK4, 1.0E-07 M) | Residual activity ([6]; 1.0E-06 M) | Residual activity ([6]; 1.0E-07 M) |
| --- | --- | --- | --- | --- | --- | --- | --- | --- | --- | --- | --- | --- |
| C#Cc1cc(Nc2ncnc3cc(I)ccc23)ccc1Cl [Compound 41] | 106 % of control | 122 % of control | 94 % of control | 108 % of control | 128 % of control | 146 % of control | 78 % of control | 108 % of control | 113 % of control | 128 % of control | 78 % of control | 87 % of control |
| C#Cc1cc(Nc2ncnc3cc(OC)c(OC)cc23)ccc1Cl [Compound 45] | 105 % of control | 119 % of control | 101 % of control | 108 % of control | 133 % of control | 127 % of control | 85 % of control | 112 % of control | 126 % of control | 121 % of control | 85 % of control | 90 % of control |
